According to US7053041B1, “Methods and compositions useful for inhibition of αvβ5mediated angiogenesis” (The Scripps Research Institute, priority 1996, dated 2006):
[ ]: non-standard residue; d: D form.

B1: LM609: mouse monoclonal antibody, anti-αvβ3 (antibody, V domains shown)
VH: EVQLEESGGGLVKPGGSLKLSCAASGFAFSSYDMSWVRQIPEKRLEWVAKVSSGGGSTYYLDTVQGRFTISRDNAKNTLYLQMSSLNSEDTAMYYCARHNYGSFAYWGQGTLVTVSA
VL: ELVMTQTPATLSVTPGDSVSLSCRASQSISNHLHWYQQKSHESPRLLIKYASQSISGIPSRFSGSGSGTDFTLSINSVETEDFGMYFCQQSNSWPHTFGGGTKLEIKRA

Legend:
Type in all cases: in vivo
[1] = system: M21L human melanoma tumors; test: chimeric mouse:human (SCID) assay, M21L melanoma tumor growth; details: for tumor volume (FIG. 9): 250 μg peptide intraperitoneally 3 times per week over 3 weeks; for tumor volume (FIG. 21): M21-L tumors, peptides compared with mAB LM609
Description: An in vivo chimeric mouse:human model was generated by replacing a portion of skin from a SCID mouse with human neonatal foreskin. The in vivo chimeric mouse:human model was prepared essentially as described in Yan, et al., J. Clin. Invest., 91:986–996 (1993). Briefly, a 2 cm^2 square area of skin was surgically removed from a SCID mouse (6–8 weeks of age) and replaced with a human foreskin. The mouse was anesthetized and the hair removed from a 5 cm^2 area on each side of the lateral abdominal region by shaving. Two circular graft beds of 2 cm^2 were prepared by removing the full thickness of skin down to the fascia. Full thickness human skin grafts of the same size derived from human neonatal foreskin were placed onto the wound beds and sutured into place. The graft was covered with a Band-Aid which was sutured to the skin. Micropore cloth tape was also applied to cover the wound.
After the skin graft was established, the human foreskin was inoculated with melanoma cells. The M21L human melanoma cell line was used to form the solid human tumors on the human skin grafts on the SCID mice. A single cell suspension of 2×10^6 M21L was injected intradermally into the human skin graft. The mice were then observed for 2 to 4 weeks to allow growth of measurable human tumors.
After a measurable tumor was established, either 250 μg of the peptide (in a volume of 100 μl) having SEQ ID NO 9 (cyclic RGD-containing peptide Arg-Gly-Asp-D-Phe-Asn-NMeVAL) or a control peptide, cyclo Arg-βAla-Asp-D-Phe-Val, were injected intraperitoneally into the mouse 3 times per week over 3 weeks. At the end of this time, the tumor was excised and analyzed by weight and histology.
In additional assays with the SCID mice model having measurable M21-L tumors, in a preliminary analysis, a dose response curve was performed for peptides 69601 (control) and 85189 (test) injected over a concentration range of 10 to 250 μg/ml. The mean volume and weight of resected tumors following treatment were determined with the results respectively shown in FIGS. 22A and 22B.
For analyzing peptide 85189 treatment effectiveness over a time course, two treatment regimens were evaluated in the same SCID tumor model. In one assay, treatment with either peptide 85189 or 69601 was initiated on day 6, with day 0 being the day of M21-L tumor injection of 3×10^6 cells subcutaneously into mouse skin, with intraperitoneal injections of 250 μg/ml peptide 85189 or control 69601 every other day until day 29. The other assay was identically performed with the exception that treatment was initiated on day 20. At the end of the assays, the tumors were resected and the mean tumor volume in mm^3 was determined. The data was plotted as this value +/− the standard error of the mean.

[2] = system: FgM tumors; test: tumor regression on chick CAM, FgM tumors, intravenous peptide; details: 100 ug peptide intravenously 18 hours postimplantation; 48 hours more
Description: (§1) In one particular set of assays, additional tumor regression assays were performed with the αvβ5-reactive peptide 85189 (SEQ ID NO 9) against 69601 (SEQ ID NO 5) as a control. The assays were performed as described above with the exception that 100 ug of peptide was intravenously injected into the CAM at 18 hourst postimplantation of the various tumors which in this case included UCLAP-3, M21-L and FgM tumor types. After 48 hours more, the tumors were then resected and wet weights were obtained.

[3] = system: UCLAP-3 tumors; test: tumor regression on chick CAM, UCLAP-3 tumors, intravenous peptide; details: 100 ug peptide intravenously 18 hours postimplantation; 48 hours more
Description: as §1

[4] = system: M21-L tumors; test: tumor regression on chick CAM, M21-L tumors, intravenous peptide; details: 100 ug peptide intravenously 18 hours postimplantation; 48 hours more
Description: as §1

[5] = system: bFGF-induced angiogenesis; test: chick CAM assay, bFGF-induced angiogenesis, intravenous inhibitors; details: for inhibition of bFGF-induced CAM angiogenesis: bFGF 150 ng/ml, 75 μg antibody or peptide intravenously, 72 hours
Description: Ten day old chick embryos were obtained from McIntyre Poultry (Lakeside, Calif.) and incubated at 37C with 60% humidity. A small hole was made through the shell at the end of the egg directly over the air sac with the use of a small crafts drill (Dremel, Division of Emerson Electric Co., Racine, Wis.). A second hole was drilled on the broad side of the egg in a region devoid of embryonic blood vessels determined previously by candling the egg. […] A 1.0 centimeter (cm)×1.0 cm square window was cut through the shell over the dropped CAM with the use of a small model grinding wheel (Dremel). The small window allowed direct access to the underlying CAM.
Angiogenesis was induced by placing a 5 millimeter (mm)×5 mm Whatman filter disk (Whatman Filter paper No. 1) saturated with Hanks Balanced Salt Solution (HBSS, GIBCO, Grand Island, N.Y.) or HBSS containing preselected cytokines at a preselected concentration, i.e. one to test the effect on angiogenesis, on the CAM of a 10 day chick embryo in a region devoid of blood vessels and the windows were later sealed with tape. Angiogenesis was monitored by photomicroscopy after 72 hours. CAMs were snap frozen then 6 μm cryostat sections were fixed with acetone and stained by immunofluorescence as described in Example 2B and 2C with 10 μg/ml of selected anti-integrin antibodies, including those directed against αvβ5 as described in Example 1.
Angiogenesis was first induced on 10 day old chick embryos by application of growth factor-saturated filter disks. Specifically, in the first assays, angiogenesis was induced by exposure to either bFGF or VEGF, each at a concentration of 150 ng/ml.
For application of growth factors, during the candling procedures, prominent blood vessels were selected and marks were made on the egg shell to indicate their positions. The holes were drilled in the shell, the CAMs were dropped and growth factor-saturated filter papers were then separately placed on the CAMs as described above. The windows were sealed with sterile tape and the embryos were replaced in the incubator.
Twenty four hours later, a second small window was carefully cut on the lateral side of the egg shell directly over prominent blood vessels selected previously. The outer egg shell was carefully removed leaving the embryonic membranes intact. The shell membrane was made transparent with a small drop of mineral oil (Perkin-Elmer Corp, Norwalk, Conn.) which allowed the blood vessels to be visualized easily. Then, phosphate buffered saline (PBS), 75 μg of purified sterile anti-integrin antibodies or 75 μg of synthetic peptides (cyclic peptide RGDfV, SEQ ID NO 4 and control cyclic peptide RADfV, SEQ ID NO 5) in PBS were injected into blood vessels apparent on the growth factor-induced CAMs. The windows were sealed with tape and the embryos were allowed to incubate until 72 hours.
The filter discs and representative surrounding CAM tissues were photographed in a stereomicroscope (FIGS. 3A–3F and FIGS. 5A–5F) and the mean angiogenic index +/− the standard error was determined for 12 CAMs per condition (FIGS. 4A–4B and FIGS. 6A–6B). Angiogenesis was scored for each embryo in a double blind manner by analyzing the number and extent of branching of blood vessels within the area of each disc. The scores ranged from 1 (low) to 4 (high) and the angiogenesis index was determined by subtracting a background of 1 from all data. […]

| Molecule | tumor volume (FIG. 9) [1] | inhibition of tumor growth over a time course (mean tumor volume) ([1]; 250 μg/ml intraperitoneally every other day from day 6 or day 20 until day 29) | inhibition of M21-L tumor growth, dose response (volume and weight) ([1]; 10 to 250 μg/ml, preliminary analysis) | tumor volume (FIG. 21) [1] | most effective dosage ([1]; range tested 10 to 250 μg/ml) | effect on tumor wet weight, FgM [2] | effect on tumor wet weight, UCLAP-3 [3] | effect on tumor wet weight, M21-L [4] | inhibition of bFGF-induced CAM angiogenesis [5] | effect on CAM angiogenesis in response to bFGF (angiogenesis index) ([5]; bFGF 1.0 μg/ml, antibodies 75 μg per embryo, calphostin C 100 nM) |
| --- | --- | --- | --- | --- | --- | --- | --- | --- | --- | --- |
| cyclo(Arg-Gly-Asp-D-Phe-NMeVal) [peptide 85189] | approximately 25 mm^3 | inhibited tumor growth | effective at inhibiting M21-L tumor growth | below 25 mm^3 | 250 µg/mL | reduction in tumor weight | reduction in tumor weight | reduction in tumor weight | – | – |
| cyclo(Arg-Ala-Asp-D-Phe-Val) (cyclo(RAD[dF]V); SMILES CC(C)[C@@H]1NC(=O)[C@@H](Cc2ccccc2)NC(=O)[C@H](CC(=O)O)NC(=O)[C@H](C)NC(=O)[C@H](CCCNC(=N)N)NC1=O) [peptide 69601, reference compound] | greater than 300 mm^3 | – | – | approximately 360 mm^3 | – | lack of effect | lack of effect | lack of effect | did not effect angiogenesis | – |
| B1 | – | – | – | approximately 60 mm^3 | – | – | – | – | inhibited bFGF-induced angiogenesis | blocked angiogenesis |
